Data taken from publication PMC4832243, “Discovery of Potent VEGFR-2 Inhibitors based on Furopyrimidine and Thienopyrimidne Scaffolds as Cancer Targeting Agents” (Scientific Reports, 2016).

Columns and labels:
SF-539 = assay: NCI 60 cell line panel (SRB), SF-539; type: cell-based; conditions: Homo sapiens; SF-539, CNS Cancer; single dose of 10 μM; read-out: Cell Growth Percent
NCI-H226 = assay: NCI 60 cell line panel (SRB), NCI-H226; type: cell-based; conditions: Homo sapiens; NCI-H226, Non-Small Cell Lung Cancer; single dose of 10 μM; read-out: Cell Growth Percent
SK-MEL-5 = assay: NCI 60 cell line panel (SRB), SK-MEL-5; type: cell-based; conditions: Homo sapiens; SK-MEL-5, Melanoma; single dose of 10 μM; read-out: Cell Growth Percent
HL-60(TB) = assay: NCI 60 cell line panel (SRB), HL-60(TB); type: cell-based; conditions: Homo sapiens, Leukemia, single dose of 10 μM, read-out: Cell Growth Percent
NCI-H322M = assay: NCI 60 cell line panel (SRB), NCI-H322M; type: cell-based; conditions: Homo sapiens, Non-Small Cell Lung Cancer, single dose of 10 μM, read-out: Cell Growth Percent
HCT-15 = assay: NCI 60 cell line panel (SRB), HCT-15; type: cell-based; conditions: Homo sapiens; HCT-15, Colon Cancer; single dose of 10 μM; read-out: Cell Growth Percent
SF-295 = assay: NCI 60 cell line panel (SRB), SF-295; type: cell-based; conditions: Homo sapiens; SF-295, CNS Cancer; single dose of 10 μM; read-out: Cell Growth Percent
OVCAR-3 = assay: NCI 60 cell line panel (SRB), OVCAR-3; type: cell-based; conditions: Homo sapiens; OVCAR-3, Ovarian Cancer; single dose of 10 μM; read-out: Cell Growth Percent
SNB-19 = assay: NCI 60 cell line panel (SRB), SNB-19; type: cell-based; conditions: Homo sapiens; SNB-19, CNS Cancer; single dose of 10 μM; read-out: Cell Growth Percent
HCC-2998 = assay: NCI 60 cell line panel (SRB), HCC-2998; type: cell-based; conditions: Homo sapiens; HCC-2998, Colon Cancer; single dose of 10 μM; read-out: Cell Growth Percent
EKVX = assay: NCI 60 cell line panel (SRB), EKVX; type: cell-based; conditions: Homo sapiens, Non-Small Cell Lung Cancer, single dose of 10 μM, read-out: Cell Growth Percent
HT29 = assay: NCI 60 cell line panel (SRB), HT29; type: cell-based; conditions: Homo sapiens, HT-29; HT29, Colon Cancer; single dose of 10 μM; read-out: Cell Growth Percent
786-0 = assay: NCI 60 cell line panel (SRB), 786-0; type: cell-based; conditions: Homo sapiens; 786-0, Renal Cancer; single dose of 10 μM; read-out: Cell Growth Percent
SK-MEL-2 = assay: NCI 60 cell line panel (SRB), SK-MEL-2; type: cell-based; conditions: Homo sapiens; SK-MEL-2, Melanoma; single dose of 10 μM; read-out: Cell Growth Percent
MDA-MB-231/ATCC = assay: NCI 60 cell line panel (SRB), MDA-MB-231/ATCC; type: cell-based; conditions: Homo sapiens, Breast Cancer, single dose of 10 μM, read-out: Cell Growth Percent
MDA-MB-435 = assay: NCI 60 cell line panel (SRB), MDA-MB-435; type: cell-based; conditions: Homo sapiens; MDA-MB-435, Melanoma; single dose of 10 μM; read-out: Cell Growth Percent
SK-MEL-28 = assay: NCI 60 cell line panel (SRB), SK-MEL-28; type: cell-based; conditions: Homo sapiens; SK-MEL-28, Melanoma; single dose of 10 μM; read-out: Cell Growth Percent
HCT-116 = assay: NCI 60 cell line panel (SRB), HCT-116; type: cell-based; conditions: Homo sapiens; HCT-116, Colon Cancer; single dose of 10 μM; read-out: Cell Growth Percent
MOLT-4 = assay: NCI 60 cell line panel (SRB), MOLT-4; type: cell-based; conditions: Homo sapiens; MOLT-4, Leukemia; single dose of 10 μM; read-out: Cell Growth Percent
SNB-75 = assay: NCI 60 cell line panel (SRB), SNB-75; type: cell-based; conditions: Homo sapiens; SNB-75, CNS Cancer; single dose of 10 μM; read-out: Cell Growth Percent
OVCAR-5 = assay: NCI 60 cell line panel (SRB), OVCAR-5; type: cell-based; conditions: Homo sapiens; OVCAR-5, Ovarian Cancer; single dose of 10 μM; read-out: Cell Growth Percent
RPMI-8226 = assay: NCI 60 cell line panel (SRB), RPMI-8226; type: cell-based; conditions: Homo sapiens; RPMI-8226, Leukemia; single dose of 10 μM; read-out: Cell Growth Percent
MALME-3M = assay: NCI 60 cell line panel (SRB), MALME-3M; type: cell-based; conditions: Homo sapiens, Melanoma, single dose of 10 μM, read-out: Cell Growth Percent
SK-OV-3 = assay: NCI 60 cell line panel (SRB), SK-OV-3; type: cell-based; conditions: Homo sapiens; SK-OV-3, Ovarian Cancer; single dose of 10 μM; read-out: Cell Growth Percent
SR = assay: NCI 60 cell line panel (SRB), SR; type: cell-based; conditions: Homo sapiens, Leukemia, single dose of 10 μM, read-out: Cell Growth Percent
M14 = assay: NCI 60 cell line panel (SRB), M14; type: cell-based; conditions: Homo sapiens; M14, Melanoma; single dose of 10 μM; read-out: Cell Growth Percent
A498 = assay: NCI 60 cell line panel (SRB), A498; type: cell-based; conditions: Homo sapiens; A498, Renal Cancer; single dose of 10 μM; read-out: Cell Growth Percent
NCI-H522 = assay: NCI 60 cell line panel (SRB), NCI-H522; type: cell-based; conditions: Homo sapiens; NCI-H522, Non-Small Cell Lung Cancer; single dose of 10 μM; read-out: Cell Growth Percent
VEGFR-2 (KDR) = target: T1, VEGFR-2 (KDR) (Homo sapiens, UniProt P35968); assay: In vitro VEGFR-2 tyrosine kinase activity (Kinase-Glo Plus luminescence, BPS Bioscience); type: biochemical; conditions: for inhibition at 10 µM: single dose concentration of 10 μM
T1 construct: purchased BPS Bioscience 40301

NCI/ADR-RES = assay: NCI 60 cell line panel (SRB), NCI/ADR-RES; type: cell-based; conditions: Homo sapiens, Ovarian Cancer, single dose of 10 μM, read-out: Cell Growth Percent
NCI-H460 = assay: NCI 60 cell line panel (SRB), NCI-H460; type: cell-based; conditions: Homo sapiens; NCI-H460, Non-Small Cell Lung Cancer; single dose of 10 μM; read-out: Cell Growth Percent
HS 578T = assay: NCI 60 cell line panel (SRB), HS 578T; type: cell-based; conditions: Homo sapiens, Breast Cancer, single dose of 10 μM, read-out: Cell Growth Percent
MCF7 = assay: NCI 60 cell line panel (SRB), MCF7; type: cell-based; conditions: Homo sapiens; MCF7, Breast Cancer; single dose of 10 μM; read-out: Cell Growth Percent
CAKI-1 = assay: NCI 60 cell line panel (SRB), CAKI-1; type: cell-based; conditions: Homo sapiens; CAKI-1, Renal Cancer; single dose of 10 μM; read-out: Cell Growth Percent

T1 sequence (P35968 20-1356): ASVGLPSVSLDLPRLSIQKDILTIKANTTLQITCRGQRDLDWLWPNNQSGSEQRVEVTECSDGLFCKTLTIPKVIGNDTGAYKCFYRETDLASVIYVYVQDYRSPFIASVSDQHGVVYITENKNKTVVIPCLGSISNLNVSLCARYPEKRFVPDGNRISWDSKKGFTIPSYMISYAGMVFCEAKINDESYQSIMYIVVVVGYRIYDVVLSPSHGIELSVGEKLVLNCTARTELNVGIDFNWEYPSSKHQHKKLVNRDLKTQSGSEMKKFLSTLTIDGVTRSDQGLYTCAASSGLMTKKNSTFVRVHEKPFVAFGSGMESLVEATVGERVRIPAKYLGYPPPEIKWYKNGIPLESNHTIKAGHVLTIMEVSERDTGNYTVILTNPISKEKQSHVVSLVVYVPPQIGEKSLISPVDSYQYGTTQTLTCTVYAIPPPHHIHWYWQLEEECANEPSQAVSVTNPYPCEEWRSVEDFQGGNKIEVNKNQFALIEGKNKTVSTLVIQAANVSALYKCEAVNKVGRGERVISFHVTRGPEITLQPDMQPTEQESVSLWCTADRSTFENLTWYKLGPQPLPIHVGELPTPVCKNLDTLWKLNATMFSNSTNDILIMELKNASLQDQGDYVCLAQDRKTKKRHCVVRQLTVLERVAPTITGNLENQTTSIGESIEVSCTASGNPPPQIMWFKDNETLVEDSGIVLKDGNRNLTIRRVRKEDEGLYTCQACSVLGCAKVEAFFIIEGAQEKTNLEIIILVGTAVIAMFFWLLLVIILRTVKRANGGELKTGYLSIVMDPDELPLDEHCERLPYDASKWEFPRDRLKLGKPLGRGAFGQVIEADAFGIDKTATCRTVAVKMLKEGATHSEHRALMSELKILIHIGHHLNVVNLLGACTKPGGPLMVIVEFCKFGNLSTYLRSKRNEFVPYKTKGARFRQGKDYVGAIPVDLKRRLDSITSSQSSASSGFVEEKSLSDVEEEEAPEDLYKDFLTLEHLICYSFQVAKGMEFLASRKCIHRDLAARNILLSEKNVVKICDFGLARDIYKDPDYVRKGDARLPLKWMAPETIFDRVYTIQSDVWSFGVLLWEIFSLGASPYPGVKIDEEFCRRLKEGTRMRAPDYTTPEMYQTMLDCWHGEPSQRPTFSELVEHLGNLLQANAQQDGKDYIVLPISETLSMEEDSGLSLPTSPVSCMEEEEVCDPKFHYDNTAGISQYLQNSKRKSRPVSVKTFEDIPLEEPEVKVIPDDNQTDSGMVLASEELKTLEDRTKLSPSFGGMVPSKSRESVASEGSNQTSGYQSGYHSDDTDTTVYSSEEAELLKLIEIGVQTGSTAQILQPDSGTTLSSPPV

SMILES | activity at 10 µM (SF-539) | activity at 10 µM (NCI-H226) | activity at 10 µM (SK-MEL-5) | activity at 10 µM (HL-60(TB)) | activity at 10 µM (NCI-H322M) | activity at 10 µM (HCT-15) | activity at 10 µM (SF-295) | activity at 10 µM (OVCAR-3) | activity at 10 µM (SNB-19) | activity at 10 µM (HCC-2998) | activity at 10 µM (EKVX) | activity at 10 µM (HT29) | activity at 10 µM (786-0) | activity at 10 µM (SK-MEL-2) | activity at 10 µM (MDA-MB-231/ATCC) | activity at 10 µM (MDA-MB-435) | activity at 10 µM (SK-MEL-28) | activity at 10 µM (HCT-116) | activity at 10 µM (MOLT-4) | activity at 10 µM (SNB-75) | also measured
COc1cccc(NC(=O)Nc2ccc(Oc3ncnc4sc5c(c34)CCCC5)cc2)c1 [Compound 21c] | 53% | 65.1% | 63.6% | 106% | 95.8% | 67.1% | 76.1% | 68.3% | 70.2% | 102% | 66.2% | 54.8% | 97.6% | 97.3% | 69.6% | 73.1% | 83.7% | 55.8% | 46.9% | 50.3% | activity at 10 µM (OVCAR-5): 105%; activity at 10 µM (RPMI-8226): 46.7%; activity at 10 µM (MALME-3M): 88.5%; activity at 10 µM (SK-OV-3): 78.2%; activity at 10 µM (SR): 50.9%; activity at 10 µM (M14): 67.3%; activity at 10 µM (A498): 67.8%; activity at 10 µM (NCI-H522): 21%; IC50 (VEGFR-2 (KDR); 5 concentrations 1 nM - 10 μM): 47 nM; activity at 10 µM (NCI/ADR-RES): 70.5%; activity at 10 µM (NCI-H460): 65.7%; activity at 10 µM (HS 578T): 60.9%; activity at 10 µM (MCF7): 54.4%; activity at 10 µM (CAKI-1): 80.8%
O=C(Nc1ccc(Cl)cc1)Nc1ccc(Oc2ncnc3sc4c(c23)CCCC4)cc1 [Compound 21d] | 70.9% | 74% | 78.4% | 100% | 103% | 91.6% | 101% | 85.8% | 79.5% | 107% | 82.9% | 86.4% | 108% | 104% | 70.1% | 93.7% | 92.6% | 82.6% | 72% | 70.8% | activity at 10 µM (OVCAR-5): 113%; activity at 10 µM (RPMI-8226): 68.8%; activity at 10 µM (MALME-3M): 98.9%; activity at 10 µM (SK-OV-3): 90.8%; activity at 10 µM (SR): 72.4%; activity at 10 µM (M14): 87%; activity at 10 µM (A498): 70.1%; activity at 10 µM (NCI-H522): 47.5%; inhibition at 10 µM (VEGFR-2 (KDR)): 46%; activity at 10 µM (NCI/ADR-RES): 85%; activity at 10 µM (NCI-H460): 82.1%; activity at 10 µM (HS 578T): 74.7%; activity at 10 µM (MCF7): 83.2%; activity at 10 µM (CAKI-1): 95.4%
CCOC(=O)c1c(C)oc2ncnc(Nc3ccc(C(=O)NCCc4ccccc4)cc3)c12 [Compound 14e] | 58.9% | 63.1% | 85.6% | 87.6% | 92.9% | 92.2% | 90.4% | 97.2% | 84% | 91.4% | 90.3% | 58.8% | 74.9% | 82.4% | 85.6% | 87.5% | 87.8% | 64.7% | 105% | 7% | activity at 10 µM (OVCAR-5): 110%; activity at 10 µM (RPMI-8226): 84.5%; activity at 10 µM (MALME-3M): 89.5%; activity at 10 µM (SK-OV-3): 85.5%; activity at 10 µM (SR): 89.2%; activity at 10 µM (M14): 81.2%; activity at 10 µM (A498): 77.5%; activity at 10 µM (NCI-H522): 66.9%; inhibition at 10 µM (VEGFR-2 (KDR)): 10%; activity at 10 µM (NCI/ADR-RES): 76.9%; activity at 10 µM (NCI-H460): 82.9%; activity at 10 µM (HS 578T): 51.2%; activity at 10 µM (MCF7): 78.6%; activity at 10 µM (CAKI-1): 92.5%
